Source: ChEMBL document CHEMBL1139242, “Peptide deformylase inhibitors of Mycobacterium tuberculosis: synthesis, structural investigations, and biological results” (Bioorg Med Chem Lett, 2008)
Values after ≈ are worked out from the molar mass of the structure shown.

Test system: Mycobacterium tuberculosis
Assay: Antimicrobial activity against Mycobacterium bovis BCG after 4 days by alamar blue assay
Assay type: functional
Details: variant bovis BCG, 96 h

Row | SMILES | MIC [µg/mL]
1 | CCCC[C@H](CN(O)C=O)C(=O)N1CCC[C@H]1c1nc2ccccc2o1 | 0.6 (≈ 1.67 µM)
2 | CCCCC[C@H](CN(O)C=O)C(=O)N1CCC[C@H]1c1nc2ccccc2o1 | 0.6 (≈ 1.61 µM)
3 | CCCC[C@H](C(=O)NO)C(=O)N1CCC[C@H]1c1nc2ccccc2o1 | 4.5 (≈ 13 µM)
4 | CCCC[C@H](CC(=O)O)C(=O)N1CCC[C@H]1c1nc2ccccc2[nH]1 | 9 (≈ 26.2 µM)
5 | CCCC[C@H](CN(O)C=O)C(=O)N1CCC[C@H]1c1nc2ccccc2[nH]1 | 0.6 (≈ 1.67 µM)
6 | CCC[C@H](CN(O)C=O)C(=O)N1CCC[C@H]1c1nc2ccccc2o1 | 4.5 (≈ 13 µM)
7 | O=CN(O)C[C@@H](CC1CC1)C(=O)N1CCC[C@H]1c1nc2ccccc2[nH]1 | 1.2 (≈ 3.37 µM)
8 | CCCC[C@H](CC(=O)O)C(=O)N1CCC[C@H]1c1nc2ccccc2o1 | 9 (≈ 26.1 µM)
9 | CCCC[C@H](C(=O)NO)C(=O)N1CCC[C@H]1c1nc2ccccc2[nH]1 | 4.5 (≈ 13.1 µM)
10 | O=CN(O)C[C@@H](Cc1ccccc1)C(=O)N1CCC[C@H]1c1nc2ccccc2[nH]1 | 9 (≈ 22.9 µM)
11 | O=CN(O)C[C@@H](Cc1ccccc1)C(=O)N1CCC[C@H]1c1nc2ccccc2o1 | 9 (≈ 22.9 µM)
12 | CCC[C@H](CN(O)C=O)C(=O)N1CCC[C@H]1c1nc2ccccc2[nH]1 | 9 (≈ 26.1 µM)
13 | CCCCC[C@H](CN(O)C=O)C(=O)N1CCC[C@H]1c1nc2ccccc2[nH]1 | 1.2 (≈ 3.22 µM)
14 | O=CN(O)C[C@@H](CC1CC1)C(=O)N1CCC[C@H]1c1nc2ccccc2o1 | 1.2 (≈ 3.36 µM)
